Counter-ions that a name gives are not always drawn.
Columns and labels:
[1] = test system: Human skin fibroblasts (Hs68); test: PDGF-induced proliferation in Hs68 cells (3H-thymidine uptake); type: cell-based; details: PDGF-BB 5 ng/ml, 24 hours; for inhibition at 1 µM: Concentration 1x10^-6 M; for inhibition at 3 µM: Concentration 3x10^-6 M; for inhibition at 0.3 µM: Concentration 3x10^-7 M
Experimental: Experiments of PDGF-induced proliferation in Hs68 cells Method: Human skin fibroblasts (Hs68, Institute for Fermentation, Osaka) were seeded in 48-well plates precoated with collagen type I (Falcon) (25000 cells/well), and cultured for one day. Then, the cells were cultured in Dulbecco's modified Eagle's medium (high glucose) containing 0.1% bovine serum albumin for 48 hours. Fifteen (15) minutes after the addition of the drug, the cells were stimulated with 5 ng/ml of PDGF-BB (Becton Dickinson Labware) containing ^3H-thymidine (final concentration 0.4 mCi/ml) (Amersham). After 24 hours, the reaction was stopped with 7.5% trichloroacetic acid at 4°C and the plate was allowed to stand at 4°C for 30 minutes. The cells were washed with Ca^2+- and Mg^2+-free phosphate-buffered saline (PBS), after then 0.1% sodium dodecyl sulfate (SDS)/0.4N NaOH was added and the plate was allowed to stand at 37°C for 1 hour to lyze the cells. The whole content of each well was taken in a vial and neutralized with 1N HCl, and then toluene scintillator (Wako Pure Chemical Ind.) was added to each vial. After stirring, the amount of ^3H-thymidine incorporated in the cells was determined with a liquid scintillation counter. The cellular uptake of ^3H-thymidine was used as an indicator of cell proliferation. The effect of the drug on the PDGF-BB (5 ng/ml) uptake of ^3H-thymidine was expressed as % inhibition. […]

[2] = test system: Glomerular mesangial cells; test: Inhibition of the proliferation of mesangial cells (PDGF-BB stimulated, 3H-thymidine uptake); type: cell-based, Sprague-Dawley rats; details: Rattus norvegicus, Glomerular mesangial cell, 24 h, PDGF-BB 5 ng/ml, read-out: Proliferation inhibiting activity (% Inhibition); for inhibition at 1 µM: Dose 10^-6 M; for inhibition at 3 µM: Dose 3 x 10^-6 M
Experimental: Glomerular mesangial cells isolated from 4-week-old male Sprague-Dawley rats (Japan Clea) were cultured in a 24-well plate (Falcon) up to the subconfluence. The cells were subsequently cultured in Dulbecco's modified Eagle MEM containing 0.2% bovine serum albumin for 24 - 48 hours before addition of a drug substance. Fifteen minutes after the drug substance was added to the culture, the cells were allowed to react with 5 ng/ml of PDGF-BB (Becton Dickinson Labwere) for stimulation, simultaneously adding ^3H-Thymidine (final concentration 0.2 µ Ci/ml) (Amasham), for 24 hours. The reaction was blocked by adding 7.5 % TCA of 4°C. The mixture was allowed to stand at 4°C for 30 minutes. The cells were washed with phosphate buffered saline containing no Ca^2+ and Mg^2+. A 0.4N NaOH/0.1% sodium dodecyl sulfate (SDS) solution was added to the washed cells and the mixture was allowed to stand at 37°C for an hour to solubilize the cells. The whole qauntity was placed in a vial and neutralized with 1N HCl. Scintillator A (Wako Pure Chemicals) was added to this with stirring. The quantity of ^3H-Thymidine incorporated in the cells was measured by the liquid scintillation counter. The increase in the quantity of the incorporated ^3H-Thymidine was designated as the parameter of the cell proliferation. The inhibitory effect of a drug substance on the intake with PDGF-BB (5 ng/ml) was expressed as % inhibition (Table 1).

SHC rats = test: Urinary protein excretion in SHC rats; type: in vivo, Spontaneously hypercholesterolemic rats; details: 1 mg/kg/day oral once daily
From the text: Experiments of urinary protein excretion in SHC rats Method: Spontaneously hypercholesterolemic rats (male, 7 weeks old) were given a drug suspended in 0.5% methylcellulose (100 cP) by oral administration once daily for 6 weeks. A control group was given 0.5% methylcellulose (100 cP) by the same route once daily. As a normal control group, Sprague-Dawley rats (SD rats) (male, 7 weeks old, CLEA Japan, Inc.) were given 0.5% methylcellulose (100 cP) orally once daily. Before the start of medication and at 2-weeks intervals after the first administration of drugs, urine was collected for twenty four hours and the total protein and albumin excreted in the urine were determined. The assay of total protein and albumin was carried out using the A/GB Test Wako (Wako Pure Chemical Ind.).

[3] = duration of administration 0 weeks (before start of medication)
[4] = duration of administration 2 weeks
[5] = duration of administration 4 weeks
[6] = duration of administration 6 weeks

Question: `O=c1c2cnc3cccc(n1CC1CCN(S(=O)(=O)C(F)(F)F)CC1)n32` [8(ii), 1,2-Dihydro-1-(1-trifluoromethanesulfonylpiperidin-4-ylmethyl)-1,4,7b-triazacyclopent[cd]inden-2-one] was tested. Which inhibition at 1 µM [1] did it give?
Answer: Its inhibition at 1 µM is 74.9%.

Question: For `O=C1c2cnc3cccc(n23)CN1CC1CCN(S(=O)(=O)C(F)(F)F)CC1` [11(iii), 4,5-Dihydro-4-(1-trifluoromethanesulfonylpiperidin-4-ylmethyl)-3H-1,4,8b-triazaacenaphthylen-3-one hydrochloride], which inhibition at 3 µM [1] is on record?
Answer: The inhibition at 3 µM was 59.2%.

Question: Which inhibition at 1 µM [1] does the source give for `O=C1c2cnc3cccc(n23)CN1CCC1CCN(S(=O)(=O)C(F)(F)F)CC1` [12(ii), 4,5-Dihydro-4-[2-(1-trifluoromethanesulfonylpiperidin-4-yl)ethan-1-yl]-3H-1,4,8b-triazaacenaphthylen-3-one] here?
Answer: The inhibition at 1 µM was 96.6%.

Question: With `Cc1nc2cccc3nc(SCCC4CCN(S(=O)(=O)C(F)(F)F)CC4)c1n23` [25(ii), 3-Methyl-2-[2-(1-trifluoromethanesulfonylpiperidin-4-yl)ethan-1-yl]thio-1,4,7b-triazacyclopent[cd]indene] as the compound, how does the inhibition at 0.3 µM [1] read?
Answer: The inhibition at 0.3 µM was 83.4%.

Question: `Cc1nc2cccc3n(CCC4CCN(S(=O)(=O)C(F)(F)F)CC4)c(=O)c1n23` [Compound 3, 1,2-dihydro-3-methyl-1-[2-(1-trifluoromethanesulfonylpiperidin-4-yl)ethan-1-yl]-1,4,7b-triazacyclopent[cd]inden-2-one hydrochloride] was tested. Which inhibition at 0.3 µM ([2]; Dose 3 x 10^-7 M) did it give?
Answer: Its inhibition at 0.3 µM is 39%.

Question: What about the inhibition at 1 µM [2] of the same compound?
Answer: Its inhibition at 1 µM is 91.1%.

Question: Which inhibition at 3 µM [2] does the source give for `CC(C)(C)OC(=O)N1CCC(Cn2c(=O)c3cnc4cccc2n43)CC1` [Example 1, 1,2-Dihydro-1-(1-tert-butoxycarbonylpiperidin-4-ylmethyl)-1,4,7b-triazacyclopent[cd]inden-2-one] here?
Answer: The inhibition at 3 µM was 39.4%.

Question: With `CC(C)(C)OC(=O)N1CCC(CCn2c(=O)c3cnc4cccc2n43)CC1` [Example 2, 1,2-Dihydro-1-[2-(1-tert-butoxycarbonylpiperidin-4-yl)ethan-1-yl]-1,4,7b-triazacyclopent[cd]inden-2-one] as the compound, how does the inhibition at 3 µM [2] read?
Answer: Its inhibition at 3 µM is 40.1%.

Question: What about the inhibition at 10 µM ([2]; Dose 10^-5 M) of the same compound?
Answer: Its inhibition at 10 µM is 58.3%.

Question: And the inhibition at 1 µM [2]?
Answer: Its inhibition at 1 µM is 11.1%.

Question: For `O=c1c2cnc3cccc(n1CCC1CCN(S(=O)(=O)C(F)(F)F)CC1)n32` [Example 9(ii), 1,2-dihydro-1-[2-(1-trifluoromethanesulfonylpiperidin-4-yl)ethan-1-yl]-1,4,7b-triazacyclopent[cd]inden-2-one], which inhibition at 0.3 µM [1] is on record?
Answer: Its inhibition at 0.3 µM is 94.9%.

Question: What about the Urinary albumin (SHC rats; [3]) of the same compound?
Answer: The Urinary albumin was 12.0 mg/day.

Question: And the Urinary total protein (SHC rats; [3])?
Answer: Its Urinary total protein is 39.2 mg/day.

Question: What about the Urinary albumin (SHC rats; [4]) of the same compound?
Answer: The Urinary albumin was 10.9 mg/day.

Question: And the Urinary total protein (SHC rats; [4])?
Answer: Its Urinary total protein is 50.4 mg/day.

Question: And the Urinary albumin (SHC rats; [5])?
Answer: The Urinary albumin was 46.2 mg/day.

Question: And the Urinary total protein (SHC rats; [5])?
Answer: The Urinary total protein was 91.3 mg/day.

Question: And the Urinary albumin (SHC rats; [6])?
Answer: The Urinary albumin was 129.9 mg/day.

Question: What about the Urinary total protein (SHC rats; [6]) of the same compound?
Answer: Its Urinary total protein is 199.4 mg/day.

Question: `O=C1c2cccc3ncc(n23)CN1CCC1CCN(S(=O)(=O)C(F)(F)F)CC1` [Example 19, 4,5-Dihydro-4-[2-(1-trifluoromethanesulfonylpiperidin-4-yl)ethan-1-yl]-3H-1,4,8b-triazaacenaphthylen-5-one] was tested. Which inhibition at 1 µM [1] did it give?
Answer: Its inhibition at 1 µM is 72.8%.

Question: Which inhibition at 0.3 µM [1] does the source give for `Cc1nc2cccc3n(CCCC4CCN(S(=O)(=O)C(F)(F)F)CC4)c(=O)c1n23` [Example 23, 1,2-Dihydro-3-methyl-1-[3-(1-trifluoromethanesulfonylpiperidin-4-yl)propan-1-yl]-1,4,7b-triazacyclopent[cd]inden-2-one] here?
Answer: Its inhibition at 0.3 µM is 44.6%.

Question: How did the inhibition at 1 µM [1] turn out when `Cc1nc2cccc3n(CCC4CCN(C(=O)C(F)(F)C(F)(F)F)CC4)c(=O)c1n23` [Example 27, 1,2-Dihydro-3-methyl-1-[2-(1-pentafluoropropionylpiperidin-4-yl)ethan-1-yl]-1,4,7b-triazacyclopent[cd]inden-2-one] was run?
Answer: The inhibition at 1 µM was 62.7%.

Question: Which inhibition at 3 µM [1] does the source give for `Cc1nc2cccc3n(C[C@H]4CC[C@H](CNC(=O)C(F)(F)F)CC4)c(=O)c1n23` [Example 29, 1,2-Dihydro-3-methyl-1-[trans-4-(trifluoroacetylamino)methyl-1-cyclohexylmethyl]-1,4,7b-triazacyclopent[cd]inden-2-one] here?
Answer: Its inhibition at 3 µM is 76.1%.

Question: `Cc1ccc(S(=O)(=O)NC[C@H]2CC[C@H](Cn3c(=O)c4c(C)nc5cccc3n54)CC2)cc1` [Example 32, 1,2-Dihydro-3-methyl-1-[trans-4-(4-methylphenylsulfonylamino)methyl-1-cyclohexylmethyl]-1,4,7b-triazacyclopent[cd]inden-2-one] was tested. Which inhibition at 1 µM [1] did it give?
Answer: Its inhibition at 1 µM is 80.3%.

Source: patent EP0826686A2, “Tricyclic compounds, their production and use” (TAKEDA CHEMICAL INDUSTRIES, LTD., priority 1996, dated 1998)
